Source: patent US20160002204A1 (Board of Regents, The University of Texas System, priority 2014, published 2016)
pEC50, pIC50: −log10 of the molar value.

Tests used:
[1] = target: T1, GLS1 (purified recombinant human GAC) (Homo sapiens, UniProt O94925); experiment: GLS1 enzymatic activity assay (dual-coupled, Amplex UltraRed/resorufin); format: biochemical
T1 sequence (O94925 55-598 isoform O94925-3 limits assumed): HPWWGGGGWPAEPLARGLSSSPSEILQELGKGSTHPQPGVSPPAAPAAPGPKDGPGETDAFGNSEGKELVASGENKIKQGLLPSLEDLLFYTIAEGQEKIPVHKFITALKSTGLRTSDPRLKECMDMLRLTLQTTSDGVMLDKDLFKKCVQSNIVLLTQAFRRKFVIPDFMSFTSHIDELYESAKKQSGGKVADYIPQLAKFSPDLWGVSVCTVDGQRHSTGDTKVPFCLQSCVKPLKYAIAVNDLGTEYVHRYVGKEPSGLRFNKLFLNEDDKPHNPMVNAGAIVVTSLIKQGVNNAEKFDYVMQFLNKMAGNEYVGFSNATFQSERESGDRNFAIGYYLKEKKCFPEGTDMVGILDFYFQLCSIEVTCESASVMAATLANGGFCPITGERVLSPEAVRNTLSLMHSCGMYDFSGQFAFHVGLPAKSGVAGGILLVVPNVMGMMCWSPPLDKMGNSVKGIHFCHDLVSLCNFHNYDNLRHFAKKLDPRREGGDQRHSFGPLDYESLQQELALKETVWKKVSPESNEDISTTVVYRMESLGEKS
How it was run: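 GAC activity measured by coupling glutamate to glutamate oxidase and HRP, generating resorufin from Amplex UltraRed. Enzyme (2 nM) preincubated with 50 mM potassium phosphate 10 min at room temperature, then inhibitor 10 min; 1 mM glutamine substrate, 1% DMSO. Fluorescence 530/590 nm, kinetic or 20-min endpoint; IC50 from four-parameter logistic fit.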

[2] = tested on: A549 cells; experiment: A549 proliferation (viability) assay, Cell Titer Fluor, 72 hours; format: cell-based; conditions: Homo sapiens
How it was run: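 A549 cells seeded at 1000 cells/well, left 24 h, then exposed to compound for 72 h at 37 °C, 5% CO2, final DMSO 0.5% (v/v). Viability read by Cell Titer Fluor fluorescence; EC50 from four-parameter logistic fit.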

For O=C(NCc1cccc(OC(F)(F)F)c1)c1cn(CC(F)CCn2ccc(COc3cccc(F)c3)cc2=O)nn1 (centres unmarked) [Example 472, 1-{2-fluoro-4-[4-(3-fluorophenoxymethyl)-2-oxo-1,2-dihydropyridin-1-yl]butyl}-N-{[3-(trifluoromethoxy)phenyl]methyl}-1H-1,2,3-triazole-4-carboxamide], the pIC50 [1] was greater than 7.00 and the pEC50 [2] was 6.30 to 7.00.
COc1cccc(CNC(=O)c2cn(CCCCn3ccc(NC(=O)Cc4cccc(OC(F)(F)F)c4)cc3=O)nn2)c1 [Example 65, N-[(3-methoxyphenyl)methyl]-1-[4-(2-oxo-4-{2-[3-(trifluoromethoxy)phenyl]acetamido}-1,2-dihydropyridin-1-yl)butyl]-1H-1,2,3-triazole-4-carboxamide] was tested, and the pIC50 [1] was greater than 7.00 and the pEC50 [2] was 5.30 to 6.30.
Work on O=C(Cc1ccccc1)Nc1ccn(CCCCc2nnc(NC(=O)[C@@H](O)c3ccccc3)s2)c(=O)n1 [Example 17, (S)-2-hydroxy-N-(5-(4-(2-oxo-4-(2-phenylacetamido)pyrimidin-1(2H)-yl)butyl)-1,3,4-thiadiazol-2-yl)-2-phenylacetamide] yielded a pIC50 [1] greater than 7.00 and a pEC50 [2] of less than 5.30.
O=C(Cc1cccc(OC(F)(F)F)c1)Nc1ccn(CCCCn2cc(C(=O)NCc3cccc(OC(F)(F)F)c3)nn2)c(=O)c1 [Example 52, 1-[4-(2-oxo-4-{2-[3-(trifluoromethoxy)phenyl]acetamido}-1,2-dihydropyridin-1-yl)butyl]-N-{[3-(trifluoromethoxy)phenyl]methyl}-1H-1,2,3-triazole-4-carboxamide] was tested, and the pIC50 [1] was greater than 7.00 and the pEC50 [2] was 6.30 to 7.00.
For O=C(CC1CCCC1)Nc1ccn(CCCCc2nnc(NC(=O)NCc3ccccc3)s2)c(=O)c1F [Example 130, N-(1-(4-(5-(3-benzylureido)-1,3,4-thiadiazol-2-yl)butyl)-3-fluoro-2-oxo-1,2-dihydropyridin-4-yl)-2-cyclopentylacetamide], the pIC50 [1] was greater than 7.00 and the pEC50 [2] was 5.30 to 6.30.
With O=C(Cc1cccc(OC(F)(F)F)c1)Nc1ccn(CCCCn2cc(C(=O)NCc3ccccc3)nn2)c(=O)c1 [Example 51, N-benzyl-1-[4-(2-oxo-4-{2-[3-(trifluoromethoxy)phenyl]acetamido}-1,2-dihydropyridin-1-yl)butyl]-1H-1,2,3-triazole-4-carboxamide] the pIC50 [1] was greater than 7.00 and the pEC50 [2] was 5.30 to 6.30.
CC1(C)CN(CC(=O)Nc2ccn(CCC(F)Cn3cc(C(=O)NCc4cccc(OC(F)(F)F)c4)nn3)c(=O)c2)CCO1 (centres unmarked) [Example 276, 1-(4-{4-[2-(2,2-dimethylmorpholin-4-yl)acetamido]-2-oxo-1,2-dihydropyridin-1-yl}-2-fluorobutyl)-N-{[3-(trifluoromethoxy)phenyl]methyl}-1H-1,2,3-triazole-4-carboxamide] showed a pIC50 [1] greater than 7.00 and a pEC50 [2] of 6.30 to 7.00.
Compound O=C(Cc1ccccc1)Nc1ccn(CCC(F)Cn2cc(C(=O)NCc3cc(Cl)ccc3F)nn2)c(=O)c1F (centres unmarked) [Example 392, N-[(5-chloro-2-fluorophenyl)methyl]-1-{2-fluoro-4-[3-fluoro-2-oxo-4-(2-phenylacetamido)-1,2-dihydropyridin-1-yl]butyl}-1H-1,2,3-triazole-4-carboxamide] has a pIC50 [1] greater than 7.00 and a pEC50 [2] greater than 7.00.
For O=C(Cc1ccccc1)Nc1ccn(CCC(F)Cn2cc(C(=O)NCc3ccc(CF)nc3)nn2)c(=O)c1F (centres unmarked) [Example 375, 1-{2-fluoro-4-[3-fluoro-2-oxo-4-(2-phenylacetamido)-1,2-dihydropyridin-1-yl]butyl}-N-{[6-(fluoro-methyl)pyridin-3-yl]methyl}-1H-1,2,3-triazole-4-carboxamide], the pIC50 [1] was 6.30 to 7.00 and the pEC50 [2] was 5.30 to 6.30.
In the case of CC(C)(C)OC(=O)N1CC(CC(=O)Nc2ccn(CCC(F)Cn3cc(C(=O)NCc4cccc(OC(F)(F)F)c4)nn3)c(=O)c2)C1 (centres unmarked) [Example 277, tert-butyl 3-{[(1-{3-fluoro-4-[4-({[3-(trifluoromethoxy)phenyl]methyl}carbamoyl)-1H-1,2,3-triazol-1-yl]butyl}-2-oxo-1,2-dihydropyridin-4-yl)carbamoyl]methyl}azetidine-1-carboxylate], the pIC50 [1] was greater than 7.00 and the pEC50 [2] was 6.30 to 7.00.
Work on O=C(CC1CCC1)Nc1ccn(CCCCn2cc(C(=O)NCc3cccc(OC(F)(F)F)c3)nn2)c(=O)c1 [Example 201, 1-{4-[4-(2-cyclobutylacetamido)-2-oxo-1,2-dihydropyridin-1-yl]butyl}-N-{[3-(trifluoromethoxy)phenyl]methyl}-1H-1,2,3-triazole-4-carboxamide] yielded a pIC50 [1] greater than 7.00 and a pEC50 [2] of 6.30 to 7.00.
With Cc1ccc(CNC(=O)c2nnc(CCCCn3ccc(NC(=O)CC4CCC4)c(F)c3=O)s2)cn1 [Example 464, 5-(4-(4-(2-cyclobutylacetamido)-3-fluoro-2-oxopyridin-1(2H)-yl)butyl)-N-((6-methylpyridin-3-yl)methyl)-1,3,4-thiadiazole-2-carboxamide] the pIC50 [1] was greater than 7.00 and the pEC50 [2] was greater than 7.00.
In the case of Cc1ccc(CNC(=O)c2cn(CC(F)CCn3ccc(NC(=O)C(=O)N4CCCC4)c(F)c3=O)nn2)cn1 (centres unmarked) [Example 411, 1-(2-fluoro-4-{3-fluoro-2-oxo-4-[2-oxo-2-(pyrrolidin-1-yl)acetamido]-1,2-dihydropyridin-1-yl}butyl)-N-[(6-methylpyridin-3-yl)methyl]-1H-1,2,3-triazole-4-carboxamide], the pIC50 [1] was 5.30 to 6.30 and the pEC50 [2] was 5.30 to 6.30.
Work on O=C(Cc1cccc(OC(F)(F)F)c1)Nc1ccc(CCCCn2ccc(NC(=O)Cc3ccccn3)nc2=O)nn1 [Example 118, N-[6-(4-{2-oxo-4-[2-(pyridin-2-yl)acetamido]-1,2-dihydropyrimidin-1-yl}butyl)pyridazin-3-yl]-2-[3-(trifluoromethoxy)phenyl]acetamide] yielded a pIC50 [1] greater than 7.00 and a pEC50 [2] greater than 7.00.
Work on CC(C)COC(=O)Nc1ccn(CCCCn2cc(C(=O)NCc3cccc(OC(F)(F)F)c3)nn2)c(=O)c1 [Example 7, Isobutyl(2-oxo-1-(4-(4-((3-(trifluoromethoxy)benzyl)carbamoyl)-1H-1,2,3-triazol-1-yl)butyl)-1,2-dihydropyridin-4-yl)carbamate] yielded a pIC50 [1] greater than 7.00 and a pEC50 [2] of 6.30 to 7.00.
With O=C(Nc1ccn(CCC(F)Cn2cc(C(=O)NCc3cc(C(F)(F)F)ccn3)nn2)c(=O)n1)OCc1ccccc1 (centres unmarked) [Example 488, benzyl N-(1-{3-fluoro-4-[4-({[4-(trifluoromethyl)pyridin-2-yl]methyl}carbamoyl)-1H-1,2,3-triazol-1-yl]butyl}-2-oxo-1,2-dihydropyrimidin-4-yl)carbamate] the pIC50 [1] was greater than 7.00 and the pEC50 [2] was greater than 7.00.
With O=C(NCc1ccccn1)c1ccn(CCCCn2cc(C(=O)NCc3cccc(OC(F)(F)F)c3)nn2)c(=O)c1 [Example 49, 2-oxo-N-(pyridin-2-ylmethyl)-1-{4-[4-({[3-(trifluoro-methoxy)phenyl]methyl}carbamoyl)-1H-1,2,3-triazol-1-yl]butyl}-1,2-dihydropyridine-4-carboxamide] the pIC50 [1] was 6.30 to 7.00 and the pEC50 [2] was 5.30 to 6.30.
CO[C@@H](C(=O)Nc1ccn(CC(F)CCn2cc(C(=O)NCc3cccc(OC(F)(F)F)c3)nn2)c(=O)c1F)c1ccccc1 (stereo partly drawn) [Example 310, 1-(3-fluoro-4-{3-fluoro-4-[(2R)-2-methoxy-2-phenylacetamido]-2-oxo-1,2-dihydropyridin-1-yl}butyl)-N-{[3-(trifluoromethoxy)phenyl]methyl}-1H-1,2,3-triazole-4-carboxamide] was tested, and the pIC50 [1] was 5.30 to 6.30 and the pEC50 [2] was 5.30 to 6.30.
In the case of CC1CCCN(C(=O)C(=O)Nc2ccn(CCC(F)Cn3cc(C(=O)NCc4cccc(OC(F)(F)F)c4)nn3)c(=O)c2F)C1 (centres unmarked) [Example 418, 1-(2-fluoro-4-{3-fluoro-4-[2-(3-methylpiperidin-1-yl)-2-oxoacetamido]-2-oxo-1,2-dihydropyridin-1-yl}butyl)-N-{[3-(trifluoromethoxy)phenyl]methyl}-1H-1,2,3-triazole-4-carboxamide], the pIC50 [1] was greater than 7.00 and the pEC50 [2] was greater than 7.00.
With O=C(CC1CCCC1)Nc1ccn(CCC(F)Cn2cc(C(=O)NCc3ncccc3F)nn2)c(=O)c1F (centres unmarked) [Example 387, 1-{4-[4-(2-cyclopentylacetamido)-3-fluoro-2-oxo-1,2-dihydropyridin-1-yl]-2-fluorobutyl}-N-[(3-fluoropyridin-2-yl)methyl]-1H-1,2,3-triazole-4-carboxamide] the pIC50 [1] was greater than 7.00 and the pEC50 [2] was greater than 7.00.
O=C(Cc1cccc(OC(F)(F)F)c1)Nc1ccc(CCCCn2ccc(NC(=O)OCc3ccccc3)nc2=O)nn1 [Example 24, Benzyl(2-oxo-1-(4-(6-(2-(3-(trifluoromethoxy)phenyl)acetamido)pyridazin-3-yl)butyl)-1,2-dihydropyrimidin-4-yl)carbamate] showed a pIC50 [1] greater than 7.00 and a pEC50 [2] greater than 7.00.
For COCC1CCN(CC(=O)Nc2ccn(CCC(F)Cn3cc(C(=O)NCc4cccc(OC(F)(F)F)c4)nn3)c(=O)c2)CC1 (centres unmarked) [Example 272, 1-[2-fluoro-4-(4-{2-[4-(methoxymethyl)piperidin-1-yl]acetamido}-2-oxo-1,2-dihydropyridin-1-yl)butyl]-N-{[3-(trifluoromethoxy)phenyl]methyl}-1H-1,2,3-triazole-4-carboxamide], the pIC50 [1] was greater than 7.00 and the pEC50 [2] was 6.30 to 7.00.
